Experimental data published in paper PMC12794274, “Therapeutic potential of Sheng-Xian-Tang in doxorubicin-induced chronic heart failure by regulation of phenylalanine metabolism disruption” (Chinese Medicine, 2026).
Read-outs that look alike come from different tables or passages of the source.

Columns and labels:
[1] = test system: AML12 cells; test: AML12 cell viability (CCK8); type: cell-based
Protocol: (§1) Mouse hepatocellular cell lines (AML12), purchased from the Shanghai Cell Bank of Chinese Academy of Sciences (Shanghai, China), were cultured in Dulbecco’s Modified Eagle Medium (DMEM) supplemented with 10% fetal bovine serum (FBS) and 2 mM L-glutamine and 1% pyruvate and maintained at 37 °C in a […], 5% CO2 incubator. Cells were seeded at a density of 5 × 10^5 cells/well in 6-well plates. […] Cells’ survival rate was detected by Cell Counting Kit-8 (CCK8) Reagents (Thermo Scientific, Singapore).

[2] = test system: PAH activity in AML12 cells; type: cell-based; conditions: BH4 10 μM; timosaponin B-II, neomangiferin, anemarrhenasaponin I 5, 10, 20 μM; timosaponin AIII 0.1, 0.2, 0.5 μM
Protocol: (§2) Serum biochemical parameters including brain natriuretic peptide (BNP), creatine kinase (CK), lactate dehydrogenase (LDH), alanine aminotransferase (ALT), and aspartate aminotransferase (AST) were measured using commercial ELISA kits (Nanjing Jiancheng Bioengineering Institute, Nanjing, China) according to the manufacturer’s instructions. Superoxide dismutase (SOD), and malondialdehyde (MDA) levels in liver and heart tissues were measured using assay kits from Aifang Biotechnology (Changsha, China). Phenylalanine and tyrosine concentrations in the cell were determined using an ELISA kit from Abmart (Shanghai, China).
as §1

[3] = target: Phenylalanine hydroxylase (PAH) protein (Homo sapiens, UniProt P00439); test: Surface Plasmon Resonance (SPR) analysis, Biacore T200; type: binding; conditions: PAH immobilized on CM5 chip, read-out: dissociation constant (Kd)
Chain of Phenylalanine hydroxylase (PAH) protein (P00439 whole entry): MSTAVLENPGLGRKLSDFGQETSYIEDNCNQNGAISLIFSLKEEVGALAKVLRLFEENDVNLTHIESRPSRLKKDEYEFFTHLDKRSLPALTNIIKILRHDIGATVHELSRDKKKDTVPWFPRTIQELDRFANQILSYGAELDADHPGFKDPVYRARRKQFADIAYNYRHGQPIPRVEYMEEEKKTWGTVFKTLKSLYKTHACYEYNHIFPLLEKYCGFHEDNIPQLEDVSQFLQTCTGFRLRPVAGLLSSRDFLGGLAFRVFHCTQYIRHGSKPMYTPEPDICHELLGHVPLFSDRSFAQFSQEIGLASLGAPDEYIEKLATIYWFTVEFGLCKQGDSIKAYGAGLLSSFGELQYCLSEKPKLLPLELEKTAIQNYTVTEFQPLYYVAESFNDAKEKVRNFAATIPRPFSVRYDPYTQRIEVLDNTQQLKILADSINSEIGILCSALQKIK
Protocol: SPR assays were conducted using a Biacore T200 system (GE Healthcare Life Sciences, USA). Phenylalanine hydroxylase (PAH) protein was immobilized on CM5 sensor chips using an amine-coupling kit (BR100050, GE Healthcare) following standard procedures. […] Samples were injected over reference and PAH-immobilized flow cells at a flow rate of 30 μL/min, with 120 s contact time and 120 s dissociation time. Kinetic parameters were calculated using Biacore T200 evaluation software.

[4] = test system: cardiac tissues of DOX-induced CHF rats; test: Heart histopathology (H&E, Masson) and TUNEL apoptosis detection; type: in vivo, rat
Protocol: Cardiac tissues were fixed in 4% paraformaldehyde, embedded in paraffin, and sectioned at 4–5 μm thickness. Hematoxylin and eosin (H&E) staining was performed to assess histopathological changes, while Masson’s trichrome staining was used to evaluate cardiac fibrosis. Apoptosis in cardiac tissues was detected using a TUNEL assay kit (C1088, Beyotime, Shanghai, China).

[5] = test system: DOX-induced CHF rats; test: Serum biochemical parameters (BNP, CK, LDH, ALT, AST) by ELISA kits; type: in vivo, rat
Protocol: as §2, with “manufacturer's” for “manufacturer’s”, “Aifang” left out

[6] = Rat body weight; type: in vivo; conditions: CHF rats, treatment vs DOX group, experiment I
Protocol: Experiment I, 48 rats were randomly divided into six groups: (1) the CON group; (2) the DOX group; (3) the DOX + enalapril (ENP, positive control, 1.8 mg/kg) group; (4) the DOX + SXT at low dose group (4 g/kg); (5) the DOX + SXT at middle dose group (8 g/kg); and […] the DOX + SXT at high dose group (16 g/kg). Except those rats in the CON group, the remaining rats received DOX at a 2.5 mg/kg per injection to a cumulative dose of 15 mg/kg. The dose of SXT for the low-dose group was set at 4 g/kg, based on the minimum human clinical daily dose (48.5 g, Table S2) converted to an equivalent rat dose using body surface area normalization (48.5 g/70 kg × 6.3 ≈ 4.4 g/kg, rounded to 4 g/kg). To evaluate a clear dose–response relationship, the medium and high doses were established at 8 g/kg and 16 g/kg, respectively, corresponding to 2 fold and 4 fold the low dose. […] Heart function was monitored by echocardiography analysis at day 39, and the CHF model was considered to be successfully established when the left ventricular ejection fraction (LVEF%) values were reduced to 50%. […]

[7] = test system: DOX-induced chronic heart failure (CHF) rat model; test: Echocardiography (LVEF%, LVFS%) in DOX-induced CHF rats; type: in vivo
Protocol: Experiment I, 48 rats were randomly divided into six groups: (1) the CON group; (2) the DOX group; (3) the DOX + enalapril (ENP, positive control, 1.8 mg/kg) group; (4) the DOX + SXT at low dose group (4 g/kg); (5) the DOX + SXT at middle dose group (8 g/kg); and […] the DOX + SXT at high dose group (16 g/kg). Except those rats in the CON group, the remaining rats received DOX at a 2.5 mg/kg per injection to a cumulative dose of 15 mg/kg. The dose of SXT for the low-dose group was set at 4 g/kg, based on the minimum human clinical daily dose (48.5 g, Table S2) converted to an equivalent rat dose using body surface area normalization (48.5 g/70 kg × 6.3 ≈ 4.4 g/kg, rounded to 4 g/kg). To evaluate a clear dose–response relationship, the medium and high doses were established at 8 g/kg and 16 g/kg, respectively, corresponding to 2 fold and 4 fold the low dose. This gradient dosing strategy is consistent with the Technical Guidelines for Pharmacodynamic Studies of Traditional Chinese Medicine and the Technical Guidelines for General Pharmacology Studies of Traditional Chinese Medicine and Natural Drugs, and is further supported by our previous study on the effective dose range of SXT in a rat model of doxorubicin-induced chronic heart failure. Heart function was monitored by echocardiography analysis at day 39, and the CHF model was considered to be successfully established when the left ventricular ejection fraction (LVEF%) values were reduced to 50%. Urinary samples were collected at five time points (0, 10, 20, 30, and 39 d), while fecal samples were collected before the rats were euthanized. Subsequently, the rats were anesthetized, and blood samples and heart and liver tissues were collected. All bio-samples were stored at − 80 °C until analysis.
Experiment II was conducted to specifically confirm the exacerbated cardiac abnormality of phenylalanine in the DOX-induced CHF rats. […] Heart function was detected as in the experiment I.
Echocardiographic (ECG) measurements were performed using M-mode tracings and continuous Doppler with a Vevo 2100 system (Visual Sonics, Toronto, ON, Canada). Rats were anesthetized with isoflurane prior to imaging. Cardiac function indices including left ventricular ejection fraction (LVEF%) and left ventricular fractional shortening (LVFS%) were measured and recorded.

[8] = test system: heart tissues; test: Transmission electron microscopy of heart tissue; type: in vivo, rat; conditions: experiment II; DOX alone, co-treatments vs DOX
Protocol: Freshly excised heart tissues were immediately fixed in 2.5% glutaraldehyde at 4 °C overnight. After washing with 0.1 M cacodylate trihydrate buffer, samples were post-fixed with 1% osmium tetroxide for 1 h. Tissues were then dehydrated through a graded ethanol series, incubated in acetone, and embedded in epoxy resin. Ultrathin sections were mounted on copper grids and imaged using a Hitachi HT7800 transmission electron microscope (Tokyo, Japan).

[9] = test system: phenylalanine metabolism; test: Phenylalanine and tyrosine levels in rat serum, liver and heart tissues (LC/MS); type: in vivo; conditions: experiment II, DOX + phenylalanine 280 mg/kg, BH4 14 mg/kg or SXT 16 g/kg
Protocol: Phenylalanine and tyrosine in the different rat bio-samples were analyzed by LC/MS using an Agilent 1290 Ultra high-performance liquid chromatography (UHPLC) and an Agilent 6460 triple-quadrupole tandem mass spectrometer (QQQ-MS) (Agilent Inc, USA). Data were acquired by using an Agilent Zorbax SB-C18 column (3.0 × 150 mm, 5 μm) as described previously.

[10] = test system: DOX-induced CHF rats; test: Oxidative stress in heart and liver tissue (SOD, MDA, ROS, PTGS2); type: in vivo, rat; conditions: experiment II, co-treatment with DOX
Protocol: Immunofluorescence staining was performed on tissue sections to detect phenylalanine hydroxylase (PAH), prostaglandin-endoperoxide synthase 2 (PTGS2), and reactive oxygen species (ROS). Primary antibodies against PAH and PTGS2 were used, while ROS was detected using the DCFH-DA probe. Nuclei were counterstained with DAPI. Images were captured using a fluorescence microscope. Serum biochemical parameters including brain natriuretic peptide (BNP), creatine kinase (CK), lactate dehydrogenase (LDH), alanine aminotransferase (ALT), and aspartate aminotransferase (AST) were measured using commercial ELISA kits (Nanjing Jiancheng Bioengineering Institute, Nanjing, China) according to the manufacturer's instructions. Superoxide dismutase (SOD), and malondialdehyde (MDA) levels in liver and heart tissues were measured using assay kits from […] Biotechnology (Changsha, China). Phenylalanine and tyrosine concentrations in the cell were determined using an ELISA kit from Abmart (Shanghai, China).

[11] = test system: phenylalanine hydroxylase (PAH); test: PAH expression in liver and heart (western blotting, immunofluorescence); type: in vivo, rat; conditions: experiment II; DOX vs CON, co-treatments vs DOX
Protocol: Immunofluorescence staining was performed on tissue sections to detect phenylalanine hydroxylase (PAH), prostaglandin-endoperoxide synthase 2 (PTGS2), and reactive oxygen species (ROS). Primary antibodies against PAH and PTGS2 were used, while ROS was detected using the DCFH-DA probe. Nuclei were counterstained with DAPI. Images were captured using a fluorescence microscope.
Protein was extracted from liver or heart tissue samples (30 mg) using lysis buffer. Total protein concentration was determined using a BCA protein assay kit (Thermo Fisher Scientific, USA). Equal amounts of protein from each sample were separated on 10–12% SDS-PAGE gels and transferred to PVDF membranes. Membranes were blocked with quick blocking buffer for 30 min, then incubated with anti-PAH primary antibody (1:1000 dilution) overnight at 4 °C. After washing, membranes were incubated with a secondary antibody for 1 h at 37 °C. Protein bands were visualized using an Odyssey infrared imaging system (JS-1070, Shanghai Peiqing Science & Technology Co., Ltd, China). Band intensities were quantified using ImageJ software.

[12] = experiment II, co-treatment vs DOX group

COc1ccc(-c2coc3cc(O)ccc3c2=O)cc1O [Calycosin]
non-cytoxic concentration ([1]; AML12 cells): 5 to 20 µM

C[C@@H](CC[C@@]1(O)O[C@H]2C[C@H]3[C@@H]4CC[C@@H]5C[C@@H](O[C@@H]6O[C@H](CO)[C@H](O)[C@H](O)[C@H]6O[C@@H]6O[C@H](CO)[C@@H](O)[C@H](O)[C@H]6O)CC[C@]5(C)[C@H]4CC[C@]3(C)[C@H]2[C@@H]1C)CO[C@@H]1O[C@H](CO)[C@@H](O)[C@H](O)[C@H]1O [Timosaponin B-II]
non-cytoxic concentration ([1]; mouse): 5 to 20 µM
phenylalanine levels in AML12 cells increased by DOX [2]: significantly reduce
Kd [3]: < 10 µM

O=c1c(-c2ccc(O)cc2)coc2cc(O)ccc12 [Daidzein]
non-cytoxic concentration ([1]; mouse): 5 to 20 µM

CCOC(=O)[C@H](CCc1ccccc1)N[C@@H](C)C(=O)N1CCC[C@H]1C(=O)O [ENP, Enalapril]
TUNEL-positive cardiomyocytes ([4]; treated groups vs DOX group): reduction
serum ALT and AST levels ([5]; treated groups vs DOX group, experiment I): markedly reduced
body weight [6]: partially restored
LVEF and LVFS ([7]; DOX + ENP 1.8 mg/kg vs DOX group, p < 0.001): significantly higher

O=C(O)CCCCCCCC(=O)O [Azelaic acid]
non-cytoxic concentration ([1]; mouse): 5 to 20 µM

C[C@H](O)[C@H](O)[C@H]1CNc2nc(N)[nH]c(=O)c2N1 [BH4, tetrahydrobiopterin]
mitochondrial ultrastructure of heart (electron microscopy) [8]: reversed
DOX-induced cardiac injury and collagen accumulation (H&E and Masson) [4, 12]: ameliorated
serum phenylalanine concentration [9]: 46.9791 µM
ROS production and PTGS2 expression in the heart [10]: effectively attenuated
non-cytoxic concentration ([1]; mouse): 5 to 20 µM
PAH expression in heart tissue [11]: decreased
PAH expression in liver tissue [11]: increased
DOX-induced increases in serum levels of BNP, CK, LDH, ALT and AST [5, 12]: significantly inhibited
phenylalanine levels in AML12 cells increased by DOX [2]: markedly decreased
LVEF and LVFS / DOX-induced cardiac dysfunction ([7]; experiment II, DOX + Phe 280 mg/kg, BH4 14 mg/kg or SXT 16 g/kg vs DOX group): partially alleviated
Kd [3]: 10.7 µM

COc1ccc(-c2coc3cc(O)ccc3c2=O)cc1 [Formononetin]
non-cytoxic concentration ([1]; AML12 cells): 5 to 20 µM

CC(C)CCC1(O)O[C@H]2[C@H](O)[C@H]3[C@@H]4CC[C@@H]5C[C@@H](O[C@@H]6O[C@H](CO)[C@H](O)[C@H](O)[C@H]6O[C@@H]6O[C@H](CO)[C@@H](O)[C@H](O)[C@H]6O)CC[C@]5(C)[C@H]4CC[C@]3(C)[C@H]2[C@@H]1C (stereo partly shown) [Anemarrhenasaponin I]
non-cytoxic concentration ([1]; AML12 cells): 5 to 20 µM
phenylalanine levels in AML12 cells increased by DOX [2]: significantly reduce
Kd [3]: < 10 µM

C[C@@H]1C[C@H]2O[C@@]3(O[C@@H]2C(C)(C)O)[C@H](O)[C@@]2(C)[C@@H]4CC[C@H]5C(C)(C)[C@@H](O[C@@H]6OC[C@@H](O)[C@H](O)[C@H]6O)CC[C@@]56C[C@@]46CC[C@]2(C)[C@@H]13 [Cimigenol xyloside]
non-cytoxic concentration ([1]; AML12 cells): 5 to 20 µM

CC(C)(O)[C@@H]1CC[C@](C)([C@H]2[C@@H](O)C[C@@]3(C)[C@@H]4C[C@H](O[C@@H]5O[C@H](CO)[C@@H](O)[C@H](O)[C@H]5O)[C@H]5C(C)(C)[C@@H](O[C@@H]6OC[C@@H](O)[C@H](O)[C@H]6O)CC[C@@]56C[C@@]46CC[C@]23C)O1 [Astragaloside IV]
non-cytoxic concentration ([1]; AML12 cells): 5 to 20 µM

COc1ccc(-c2coc3cc(O[C@@H]4O[C@H](CO)[C@@H](O)[C@H](O)[C@H]4O)ccc3c2=O)cc1 [Ononin]
non-cytoxic concentration ([1]; AML12 cells): 5 to 20 µM

COc1ccc(-c2coc3cc(O[C@@H]4O[C@H](CO)[C@@H](O)[C@H](O)[C@H]4O)ccc3c2=O)cc1O [Calycosin-7-O-β-D-glucoside]
non-cytoxic concentration [1]: 5 to 20 µM

C[C@H]1CC[C@@]2(OC1)O[C@H]1C[C@H]3[C@@H]4CC[C@@H]5C[C@@H](O[C@@H]6O[C@H](CO)[C@H](O)[C@H](O)[C@H]6O[C@@H]6O[C@H](CO)[C@@H](O)[C@H](O)[C@H]6O)CC[C@]5(C)[C@H]4CC[C@]3(C)[C@H]1[C@@H]2C [Timosaponin A-III]
non-cytoxic concentration ([1]; mouse): 0.1 to 0.5 µM
phenylalanine levels in AML12 cells increased by DOX [2]: significantly reduce
Kd [3]: < 10 µM

COc1ccc(/C=C/C(=O)O)cc1O [Isoferulic acid]
non-cytoxic concentration ([1]; AML12 cells): 5 to 20 µM

C[C@H]1CC[C@@]2(OC1)O[C@H]1C[C@H]3[C@@H]4CC[C@@H]5C[C@@H](O[C@@H]6O[C@H](CO)[C@H](O)[C@H](O)[C@H]6O[C@@H]6O[C@H](CO)[C@@H](O)[C@H](O)[C@H]6O)[C@@H](O)C[C@]5(C)[C@H]4CC[C@]3(C)[C@H]1[C@@H]2C [Timosaponin A-II]
non-cytoxic concentration ([1]; AML12 cells): 0.1 to 0.5 µM
